Data taken from patent publication US8192962B2, “Processes for detecting toxic substances” (Daikin Industries, Ltd., priority 2001, dated 2012).

Tested on: Detoxification protein genes
Assay: DNA chip mRNA expression in yeast, detoxification protein genes (Table 8)
Assay type: cell-based, Saccharomyces cerevisiae S288C
Outline: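 Chemical exposure: 2 h, log-phase S. cerevisiae S288C, YPD, 25° C., dose set to inhibit growth without death. Profiling: mRNA labeled by reverse transcription with Cy3- or Cy5-dUTP, hybridized to whole-genome array. Output: fluorescence ratio against untreated culture.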

For Na2As [(1)], the “The level of expressed mRNA in the presence of chemical substance/The level of expressed mRNA in the absence of chemical substance” value (yeast gene YBL064C) was 2.6, the “The level of expressed mRNA in the presence of chemical substance/The level of expressed mRNA in the absence of chemical substance” value (yeast gene YBR008C) was 3.0 and the “The level of expressed mRNA in the presence of chemical substance/The level of expressed mRNA in the absence of chemical substance” value (yeast gene YBR145W) was 1.5. The “The level of expressed mRNA in the presence of chemical substance/The level of expressed mRNA in the absence of chemical substance” value (yeast gene YBR244W) was 0.6, the “The level of expressed mRNA in the presence of chemical substance/The level of expressed mRNA in the absence of chemical substance” value (yeast gene YBR293W) was 1.9 and the “The level of expressed mRNA in the presence of chemical substance/The level of expressed mRNA in the absence of chemical substance” value (yeast gene YCL035C) was 2.0. For the same substance, the “The level of expressed mRNA in the presence of chemical substance/The level of expressed mRNA in the absence of chemical substance” value (yeast gene YCL069W) was 0.9, the “The level of expressed mRNA in the presence of chemical substance/The level of expressed mRNA in the absence of chemical substance” value (yeast gene YCR083W) was 1.1 and the “The level of expressed mRNA in the presence of chemical substance/The level of expressed mRNA in the absence of chemical substance” value (yeast gene YDL100C) was 1.0. The “The level of expressed mRNA in the presence of chemical substance/The level of expressed mRNA in the absence of chemical substance” value (yeast gene YDL168W) was 2.3, the “The level of expressed mRNA in the presence of chemical substance/The level of expressed mRNA in the absence of chemical substance” value (yeast gene YDR256C) was 0.8 and the “The level of expressed mRNA in the presence of chemical substance/The level of expressed mRNA in the absence of chemical substance” value (yeast gene YDR453C) was 1.1. For the same substance, the “The level of expressed mRNA in the presence of chemical substance/The level of expressed mRNA in the absence of chemical substance” value (yeast gene YDR513W) was 2.2, the “The level of expressed mRNA in the presence of chemical substance/The level of expressed mRNA in the absence of chemical substance” value (yeast gene YDR538W) was 0.9 and the “The level of expressed mRNA in the presence of chemical substance/The level of expressed mRNA in the absence of chemical substance” value (yeast gene YEL027W) was 1.2. The “The level of expressed mRNA in the presence of chemical substance/The level of expressed mRNA in the absence of chemical substance” value (yeast gene YEL065W) was 0.3, the “The level of expressed mRNA in the presence of chemical substance/The level of expressed mRNA in the absence of chemical substance” value (yeast gene YER185W) was 2.0 and the “The level of expressed mRNA in the presence of chemical substance/The level of expressed mRNA in the absence of chemical substance” value (yeast gene YFL050C) was 0.7. For the same substance, the “The level of expressed mRNA in the presence of chemical substance/The level of expressed mRNA in the absence of chemical substance” value (yeast gene YGL013C) was 0.9, the “The level of expressed mRNA in the presence of chemical substance/The level of expressed mRNA in the absence of chemical substance” value (yeast gene YGL254W) was 1.2 and the “The level of expressed mRNA in the presence of chemical substance/The level of expressed mRNA in the absence of chemical substance” value (yeast gene YGR088W) was 1.3. The “The level of expressed mRNA in the presence of chemical substance/The level of expressed mRNA in the absence of chemical substance” value (yeast gene YGR138C) was 1.1, the “The level of expressed mRNA in the presence of chemical substance/The level of expressed mRNA in the absence of chemical substance” value (yeast gene YGR197C) was 1.1 and the “The level of expressed mRNA in the presence of chemical substance/The level of expressed mRNA in the absence of chemical substance” value (yeast gene YGR209C) was 1.6. For the same substance, the “The level of expressed mRNA in the presence of chemical substance/The level of expressed mRNA in the absence of chemical substance” value (yeast gene YGR224W) was 0.9, the “The level of expressed mRNA in the presence of chemical substance/The level of expressed mRNA in the absence of chemical substance” value (yeast gene YHL040C) was 1.6 and the “The level of expressed mRNA in the presence of chemical substance/The level of expressed mRNA in the absence of chemical substance” value (yeast gene YHL047C) was 0.6. The “The level of expressed mRNA in the presence of chemical substance/The level of expressed mRNA in the absence of chemical substance” value (yeast gene YHR008C) was 1.3, the “The level of expressed mRNA in the presence of chemical substance/The level of expressed mRNA in the absence of chemical substance” value (yeast gene YHR048W) was 2.5 and the “The level of expressed mRNA in the presence of chemical substance/The level of expressed mRNA in the absence of chemical substance” value (yeast gene YHR053C) was 3.5. For the same substance, the “The level of expressed mRNA in the presence of chemical substance/The level of expressed mRNA in the absence of chemical substance” value (yeast gene YHR055C) was 4.4, the “The level of expressed mRNA in the presence of chemical substance/The level of expressed mRNA in the absence of chemical substance” value (yeast gene YIR002C) was 0.8 and the “The level of expressed mRNA in the presence of chemical substance/The level of expressed mRNA in the absence of chemical substance” value (yeast gene YIR038C) was 1.3. The “The level of expressed mRNA in the presence of chemical substance/The level of expressed mRNA in the absence of chemical substance” value (yeast gene YJL101C) was 2.1, the “The level of expressed mRNA in the presence of chemical substance/The level of expressed mRNA in the absence of chemical substance” value (yeast gene YJR104C) was 1.4 and the “The level of expressed mRNA in the presence of chemical substance/The level of expressed mRNA in the absence of chemical substance” value (yeast gene YKL026C) was 2.7. For the same substance, the “The level of expressed mRNA in the presence of chemical substance/The level of expressed mRNA in the absence of chemical substance” value (yeast gene YKL064W) was 0.6, the “The level of expressed mRNA in the presence of chemical substance/The level of expressed mRNA in the absence of chemical substance” value (yeast gene YKR066C) was 0.9 and the “The level of expressed mRNA in the presence of chemical substance/The level of expressed mRNA in the absence of chemical substance” value (yeast gene YKR105C) was 0.8. The “The level of expressed mRNA in the presence of chemical substance/The level of expressed mRNA in the absence of chemical substance” value (yeast gene YKR106W) was 1.3, the “The level of expressed mRNA in the presence of chemical substance/The level of expressed mRNA in the absence of chemical substance” value (yeast gene YLL028W) was 0.6 and the “The level of expressed mRNA in the presence of chemical substance/The level of expressed mRNA in the absence of chemical substance” value (yeast gene YLL057C) was 2.2. For the same substance, the “The level of expressed mRNA in the presence of chemical substance/The level of expressed mRNA in the absence of chemical substance” value (yeast gene YLL060C) was 12.5, the “The level of expressed mRNA in the presence of chemical substance/The level of expressed mRNA in the absence of chemical substance” value (yeast gene YLR043C) was 1.4 and the “The level of expressed mRNA in the presence of chemical substance/The level of expressed mRNA in the absence of chemical substance” value (yeast gene YLR046C) was 0.7. The “The level of expressed mRNA in the presence of chemical substance/The level of expressed mRNA in the absence of chemical substance” value (yeast gene YML028W) was 1.0, the “The level of expressed mRNA in the presence of chemical substance/The level of expressed mRNA in the absence of chemical substance” value (yeast gene YML116W) was 4.1 and the “The level of expressed mRNA in the presence of chemical substance/The level of expressed mRNA in the absence of chemical substance” value (yeast gene YMR015C) was 0.7. For the same substance, the “The level of expressed mRNA in the presence of chemical substance/The level of expressed mRNA in the absence of chemical substance” value (yeast gene YMR038C) was 1.9, the “The level of expressed mRNA in the presence of chemical substance/The level of expressed mRNA in the absence of chemical substance” value (yeast gene YNL239W) was 1.0 and the “The level of expressed mRNA in the presence of chemical substance/The level of expressed mRNA in the absence of chemical substance” value (yeast gene YNL241C) was 1.3. For the same substance, the “The level of expressed mRNA in the presence of chemical substance/The level of expressed mRNA in the absence of chemical substance” value (yeast gene YNL259C) was 1.6, the “The level of expressed mRNA in the presence of chemical substance/The level of expressed mRNA in the absence of chemical substance” value (yeast gene YOL158C) was 0.7 and the “The level of expressed mRNA in the presence of chemical substance/The level of expressed mRNA in the absence of chemical substance” value (yeast gene YOR031W) was 2.6. For the same substance, the “The level of expressed mRNA in the presence of chemical substance/The level of expressed mRNA in the absence of chemical substance” value (yeast gene YOR153W) was 1.6, the “The level of expressed mRNA in the presence of chemical substance/The level of expressed mRNA in the absence of chemical substance” value (yeast gene YOR247W) was 1.7 and the “The level of expressed mRNA in the presence of chemical substance/The level of expressed mRNA in the absence of chemical substance” value (yeast gene YOR251C) was 1.1. The “The level of expressed mRNA in the presence of chemical substance/The level of expressed mRNA in the absence of chemical substance” value (yeast gene YOR273C) was 0.7, the “The level of expressed mRNA in the presence of chemical substance/The level of expressed mRNA in the absence of chemical substance” value (yeast gene YPL163C) was 0.6 and the “The level of expressed mRNA in the presence of chemical substance/The level of expressed mRNA in the absence of chemical substance” value (yeast gene YPR200C) was 47.7.
